From patent publication US12202843B2, “Muscarinic receptor agonists” (Nxera Pharma UK Limited, priority 2014, dated 2025)

Experiments:
Format in all cases: cell-based
[1] = molecular target: T1, human muscarinic M3 receptor (Homo sapiens, UniProt P20309); experiment: Alphascreen Surefire phospho-ERK1/2 functional assay, M3; conditions: for EC50: CHO cells stably expressing human M3, read-out: pEC50 M3 (converted); for Emax: CHO, read-out: % Emax cf. ACh, M3, CHO cells stably expressing human M3, relative to ACh; for % Emax cf. ACh, M3: CHO cells stably expressing human M3, relative to ACh
T1 construct: expressed in transfected cells
T1 sequence (P20309 whole entry): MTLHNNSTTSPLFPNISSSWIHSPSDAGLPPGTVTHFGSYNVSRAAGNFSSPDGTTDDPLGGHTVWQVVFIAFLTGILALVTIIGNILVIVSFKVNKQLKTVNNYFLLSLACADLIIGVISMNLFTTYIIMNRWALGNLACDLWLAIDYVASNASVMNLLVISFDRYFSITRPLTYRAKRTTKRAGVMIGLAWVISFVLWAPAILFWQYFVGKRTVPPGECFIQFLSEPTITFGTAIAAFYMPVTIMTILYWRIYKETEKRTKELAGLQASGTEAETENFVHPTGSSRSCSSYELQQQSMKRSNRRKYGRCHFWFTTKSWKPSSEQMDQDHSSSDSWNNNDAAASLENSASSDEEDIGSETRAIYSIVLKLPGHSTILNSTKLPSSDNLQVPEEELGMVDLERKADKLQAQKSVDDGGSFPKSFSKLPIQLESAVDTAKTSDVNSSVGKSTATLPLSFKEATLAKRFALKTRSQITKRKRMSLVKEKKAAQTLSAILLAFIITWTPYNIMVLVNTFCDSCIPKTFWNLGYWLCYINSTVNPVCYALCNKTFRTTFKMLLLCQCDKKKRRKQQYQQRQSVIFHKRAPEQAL
Protocol: (§1) ERK1/2 phosphorylation is a downstream consequence of both Gq/11 and Gi/o protein coupled receptor activation, making it highly suitable for the assessment of M1, M3 (Gq/11 coupled) and M2, M4 receptors (Gi/o coupled), rather than using different assay formats for different receptor subtypes. CHO cells stably expressing the human muscarinic M1, M2, M3 or M4 receptor were plated (25K/well) onto 96-well tissue culture plates in MEM-alpha+10% dialysed FBS. Once adhered, cells were serum-starved overnight. Agonist stimulation was performed by the addition of 5 μL agonist to the cells for 5 min (37° C.). Media was removed and 50 μL of lysis buffer added. […] Plates were incubated for 2 h with gentle agitation in the dark and then read on a PHERAstar plate reader.
(§2) pEC50 and Emax figures were calculated from the resulting data for each receptor subtype.

[2] = molecular target: T2, human muscarinic M1 receptor (Homo sapiens, UniProt P11229); experiment: Alphascreen Surefire phospho-ERK1/2 functional assay, M1; conditions: for EC50: CHO cells stably expressing human M1, read-out: pEC50 M1 (converted); for Emax: CHO, read-out: % Emax cf. ACh, M1, CHO cells stably expressing human M1, relative to ACh; for % Emax cf. ACh, M1: CHO cells stably expressing human M1, relative to ACh
T2 sequence (P11229 1-460): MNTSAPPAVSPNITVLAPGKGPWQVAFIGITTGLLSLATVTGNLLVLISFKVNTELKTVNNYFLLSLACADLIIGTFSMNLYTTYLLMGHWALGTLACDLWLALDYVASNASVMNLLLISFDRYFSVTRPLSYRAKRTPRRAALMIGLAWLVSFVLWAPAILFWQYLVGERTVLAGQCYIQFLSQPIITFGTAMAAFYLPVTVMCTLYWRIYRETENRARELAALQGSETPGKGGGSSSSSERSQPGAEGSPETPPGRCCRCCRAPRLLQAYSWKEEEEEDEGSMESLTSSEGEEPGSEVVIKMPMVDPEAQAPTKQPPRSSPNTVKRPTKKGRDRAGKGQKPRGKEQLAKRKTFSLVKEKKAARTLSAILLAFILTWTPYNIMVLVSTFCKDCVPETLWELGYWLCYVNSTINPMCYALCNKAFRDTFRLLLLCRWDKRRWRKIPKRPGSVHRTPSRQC
Protocol: as §1, §2

[3] = molecular target: T3, human muscarinic M2 receptor (Homo sapiens, UniProt P08172); experiment: Alphascreen Surefire phospho-ERK1/2 functional assay, M2; conditions: for EC50: CHO cells stably expressing human M2, read-out: pEC50 M2 (converted); for Emax: CHO, read-out: % Emax cf. ACh, M2, CHO cells stably expressing human M2, relative to ACh; for % Emax cf. ACh, M2: CHO cells stably expressing human M2, relative to ACh
T3 sequence (P08172 1-466): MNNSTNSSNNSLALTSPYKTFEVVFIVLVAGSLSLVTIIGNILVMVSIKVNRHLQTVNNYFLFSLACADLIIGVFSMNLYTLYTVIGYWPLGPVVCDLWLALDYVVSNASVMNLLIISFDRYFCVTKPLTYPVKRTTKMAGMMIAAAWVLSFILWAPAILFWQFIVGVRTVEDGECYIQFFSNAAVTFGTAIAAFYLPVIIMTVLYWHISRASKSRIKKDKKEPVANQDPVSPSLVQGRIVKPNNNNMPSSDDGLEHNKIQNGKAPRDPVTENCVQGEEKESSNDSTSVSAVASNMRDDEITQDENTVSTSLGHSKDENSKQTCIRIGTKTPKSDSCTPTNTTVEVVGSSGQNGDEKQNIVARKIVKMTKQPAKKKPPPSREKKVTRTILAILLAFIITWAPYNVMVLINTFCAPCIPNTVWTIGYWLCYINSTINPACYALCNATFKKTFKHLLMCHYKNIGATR
Protocol: as §1, §2

[4] = molecular target: T4, human muscarinic M4 receptor (Homo sapiens, UniProt P08173); experiment: Alphascreen Surefire phospho-ERK1/2 functional assay, M4; conditions: for EC50: CHO cells stably expressing human M4, read-out: pEC50 M4 (converted); for Emax: CHO, read-out: % Emax cf. ACh, M4, CHO cells stably expressing human M4, relative to ACh; for % Emax cf. ACh, M4: CHO cells stably expressing human M4, relative to ACh
T4 construct: expressed in transfected cells
T4 sequence (P08173 1-479): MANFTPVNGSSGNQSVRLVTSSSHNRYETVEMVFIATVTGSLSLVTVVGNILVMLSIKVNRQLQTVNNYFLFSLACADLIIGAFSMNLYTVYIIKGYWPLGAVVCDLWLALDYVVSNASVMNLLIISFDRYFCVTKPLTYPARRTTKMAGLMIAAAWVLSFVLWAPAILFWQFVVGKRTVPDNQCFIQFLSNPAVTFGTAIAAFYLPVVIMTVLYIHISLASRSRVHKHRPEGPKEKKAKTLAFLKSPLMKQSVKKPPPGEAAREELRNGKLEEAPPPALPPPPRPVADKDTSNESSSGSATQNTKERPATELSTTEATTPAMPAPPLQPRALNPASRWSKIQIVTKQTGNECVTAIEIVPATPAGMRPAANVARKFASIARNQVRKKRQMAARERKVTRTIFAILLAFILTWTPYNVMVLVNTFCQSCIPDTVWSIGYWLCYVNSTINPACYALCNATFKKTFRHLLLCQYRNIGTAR
Protocol: as §1, §2

SMILES	EC50 [1]	EC50 [2]	Emax [2]	EC50 [3]	Emax [3]	EC50 [4]	also measured
CC#CCOC(=O)N1[C@@H]2CCC[C@H]1CC(N1CCC3(CC1)CNC(=O)C3)C2 (mixture of isomers) [Example 5-3]	6310 nM	31.6 nM	80%	> 20000 nM	7%	31.6 nM	Emax [1]: 19%; Emax [4]: 37%
CCOC(=O)N1C2CCC1CC(N1CCC3(CC1)CNC(=O)C3)C2 (single isomer, unassigned) [Example 2-2 Isomer 2, ethyl 3-(3-oxo-2,8-diazaspiro[4.5]dec-8-yl)-8-azabicyclo[3.2.1]octane-8-carboxylate]	–	–	86%	–	0%	–	% Emax cf. ACh, M3 ([1]; listed as 2-2 Isomer 2): 0%; % Emax cf. ACh, M4 ([4]; listed as 2-2 Isomer 2): 31%
O=C1CC2(CCN(C3CC4CCC(C3)N4C(=O)OCCF)CC2)CN1 (single isomer, unassigned) [Example 2-3 Isomer 2]	> 20000 nM	79.4 nM	–	> 20000 nM	4%	> 20000 nM	Emax [1]: 0%; % Emax cf. ACh, M1 ([2]; listed as 2-3 Isomer 2): 49%; % Emax cf. ACh, M4 ([4]; listed as 2-3 Isomer 2): 16%
C#CCOC(=O)N1C2CCC1CC(N1CCC3(CC1)CNC(=O)C3)C2 (single isomer, unassigned) [Example 2-4 Isomer 1]	> 20000 nM	100 nM	92%	> 20000 nM	–	126 nM	% Emax cf. ACh, M3 ([1]; listed as 2-4 Isomer 1): 7%; % Emax cf. ACh, M2 ([3]; listed as 2-4 Isomer 1): 27%; Emax [4]: 64%
C#CCOC(=O)N1C2CCC1CC(N1CCC3(CC1)CNC(=O)C3)C2 (single isomer, unassigned) [Example 2-4 Isomer 2]	–	20 nM	–	–	–	25.1 nM	% Emax cf. ACh, M3 ([1]; listed as 2-4 Isomer 2): 0%; % Emax cf. ACh, M1 [2]: 86%; % Emax cf. ACh, M2 ([3]; listed as 2-4 Isomer 2): 8%; % Emax cf. ACh, M4 [4]: 53%
CC#CCOC(=O)N1C2CCC1CC(N1CCC3(CC1)CNC(=O)C3)C2 (single isomer, unassigned) [Example 2-5 Isomer 1]	> 20000 nM	25.1 nM	98%	158 nM	39%	25.1 nM	Emax [1]: 7%; Emax [4]: 87%
CCOC(=O)N1C2CCC1CC(N1CCC3(CC1)CC(=O)NC3CC)C2 (single isomer, unassigned) [Example 2-8 Isomer 1, ethyl 3-(1-ethyl-3-oxo-2,8-diazaspiro[4.5]decan-8-yl)-8-azabicyclo[3.2.1]octane-8-carboxylate]	12600 nM	20 nM	–	> 20000 nM	4%	> 20000 nM	% Emax cf. ACh, M3 ([1]; listed as 2-8 Isomer 1): 50%; % Emax cf. ACh, M1 ([2]; listed as 2-8 Isomer 1): 52%; % Emax cf. ACh, M4 ([4]; listed as 2-8 Isomer 1): 23%
CCOC(=O)N1C2CCC1CC(N1CCC3(CC1)CC(=O)NC3CC)C2 (single isomer, unassigned) [Example 2-8 Isomer 2, ethyl 3-(1-ethyl-3-oxo-2,8-diazaspiro[4.5]decan-8-yl)-8-azabicyclo [3.2.1]octane-8-carboxylate]	> 20000 nM	100 nM	–	–	–	31.6 nM	% Emax cf. ACh, M3 ([1]; listed as 2-8 Isomer 2): 12%; % Emax cf. ACh, M1 ([2]; listed as 2-8 Isomer 2): 89%; % Emax cf. ACh, M2 [3]: 6%; % Emax cf. ACh, M4 ([4]; listed as 2-8 Isomer 2): 59%
CCOC(=O)N1C2CCCC1CC(N1CCC3(CC1)CNC(=O)O3)C2 (single isomer, unassigned) [Example 5-4 Isomer 1]	–	398 nM	76%	–	–	> 20000 nM	% Emax cf. ACh, M4 ([4]; listed as 5-4 Isomer 1): 39%
COC(=O)N1CC2CC(N3CCC4(CC3)CNC(=O)C4)CC1C2 (single isomer, unassigned) [Example 6-1 Isomer 1]	–	2510 nM	–	–	–	> 20000 nM	% Emax cf. ACh, M1 ([2]; listed as 6-1 Isomer 1): 78%; Emax [4]: 53%
CCOC(=O)N1C2CCC1CC(N1CCCC3(CC1)CNC(=O)O3)C2 (single isomer, unassigned) [Example 9-2 Isomer 1, ethyl 3-(2-oxo-1-oxa-3,8-diazaspiro[4.6]undec-8-yl)-8-azabicyclo[3.2.1]octane-8-carboxylate]	–	> 20000 nM	–	–	–	> 20000 nM	% Emax cf. ACh, M1 ([2]; listed as 9-2 Isomer 1): 23%; % Emax cf. ACh, M4 ([4]; listed as 9-2 Isomer 1): 13%
CCOC(=O)N1C2CCC1CC(N1CCCC3(CC1)CNC(=O)O3)C2 (single isomer, unassigned) [Example 9-2 Isomer 2, ethyl 3-(2-oxo-1-oxa-3,8-diazaspiro[4.6]undec-8-yl)-8-azabicyclo[3.2.1]octane-8-carboxylate]	–	> 20000 nM	–	–	–	> 20000 nM	% Emax cf. ACh, M1 ([2]; listed as 9-2 Isomer 2): 18%; % Emax cf. ACh, M4 ([4]; listed as 9-2 Isomer 2): 8%
CCOC(=O)N1C2CCC1CC(N1CCCC3(CC1)CNC(=O)O3)C2 (single isomer, unassigned) [Example 9-2 Isomer 3, ethyl 3-(2-oxo-1-oxa-3,8-diazaspiro[4.6]undec-8-yl)-8-azabicyclo[3.2.1]octane-8-carboxylate]	–	501 nM	–	–	–	79.4 nM	% Emax cf. ACh, M1 ([2]; listed as 9-2 Isomer 3): 113%; % Emax cf. ACh, M4 ([4]; listed as 9-2 Isomer 3): 81%
CCOC(=O)N1C2CCC1CC(N1CCCC3(CC1)CNC(=O)O3)C2 (single isomer, unassigned) [Example 9-2 Isomer 4, ethyl 3-(2-oxo-1-oxa-3,8-diazaspiro[4.6]undec-8-yl)-8-azabicyclo[3.2.1]octane-8-carboxylate]	–	10 nM	–	–	–	5.01 nM	% Emax cf. ACh, M1 ([2]; listed as 9-2 Isomer 4): 103%; % Emax cf. ACh, M4 ([4]; listed as 9-2 Isomer 4): 66%
